Experimental data published in ChEMBL document CHEMBL1201861, “Genomics of Drug Sensitity in Cancer screening data, Wellcome Trust Sanger Institute”.
Several values for one entry are separate records, joined by “and”; a condition that tells them apart may be missing. Equal values may be shown once.

Columns and labels:
[1] = tested on: NCI-H1522; experiment: cells; type: functional, cell-based; settings: Homo sapiens;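 also: growth inhibition of NCI-H1522 cells, read out with a cell viability assay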
Description: SANGER: Inhibition of human NCI-H1522 cell growth in a cell viability assay.

[2] = tested on: MRK-nu-1; experiment: cells; type: functional, cell-based; settings: Homo sapiens;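 also: cell viability assay measuring growth suppression of human MRK-nu-1 cells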
Description: SANGER: Inhibition of human MRK-nu-1 cell growth in a cell viability assay.

[3] = tested on: COLO 205; experiment: cells; type: functional, cell-based; settings: Homo sapiens
Description: SANGER: Inhibition of human COLO-205 cell growth in a cell viability assay.

[4] = tested on: PLC-PRF-5; experiment: cells; type: functional, cell-based; settings: Homo sapiens;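 also: growth inhibition of human PLC-PRF-5 cells, read out with a viability assay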
Description: SANGER: Inhibition of human PLC-PRF-5 cell growth in a cell viability assay.

[5] = tested on: MDA-MB-468; experiment: cells; type: functional, cell-based; settings: Homo sapiens
Description: SANGER: Inhibition of human MDA-MB-468 cell growth in a cell viability assay.

[6] = tested on: IPC-298; experiment: SANGER: Inhibition of human IPC-298 cell growth in a cell viability assay.; type: functional, cell-based
[7] = tested on: NCI-H2141; experiment: cells; type: functional, cell-based; settings: Homo sapiens;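 also: growth inhibition of human NCI-H2141 cells, read out with a cell viability assay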
Description: SANGER: Inhibition of human NCI-H2141 cell growth in a cell viability assay.

[8] = tested on: CCF-STTG1; experiment: cells; type: functional, cell-based; settings: Homo sapiens;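 also: growth inhibition of human CCF-STTG1 cells, determined with a cell viability read-out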
Description: SANGER: Inhibition of human CCF-STTG1 cell growth in a cell viability assay.

[9] = tested on: NCI-H1618; experiment: cells; type: functional, cell-based; settings: Homo sapiens;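 also: growth inhibition of human NCI-H1618 cells, measured by a cell viability assay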
Description: SANGER: Inhibition of human NCI-H1618 cell growth in a cell viability assay.

[10] = tested on: BL-41; experiment: cells; type: functional, cell-based; settings: Homo sapiens;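 also: growth inhibition of human BL-41 cells, read out with a cell viability assay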
Description: SANGER: Inhibition of human BL-41 cell growth in a cell viability assay.

[11] = tested on: NCI-H1963; experiment: cells; type: functional, cell-based; settings: Homo sapiens
Description: SANGER: Inhibition of human NCI-H1963 cell growth in a cell viability assay.

[12] = tested on: NB1; experiment: cells; type: functional, cell-based; settings: Homo sapiens;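 also: reduction of NB1 cell proliferation, read out with a viability assay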
Description: SANGER: Inhibition of human NB1 cell growth in a cell viability assay.

[13] = tested on: LB647-SCLC; experiment: cells; type: functional, cell-based; settings: Homo sapiens;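 also: cell growth inhibition, read out by a viability assay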
Description: SANGER: Inhibition of human LB647-SCLC cell growth in a cell viability assay.

[14] = tested on: NCI-H838; experiment: cells; type: functional, cell-based; settings: Homo sapiens;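 also: growth inhibition of human NCI-H838 cells, read out by a cell viability assay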
Description: SANGER: Inhibition of human NCI-H838 cell growth in a cell viability assay.

[15] = tested on: RH-18; experiment: cells; type: functional, cell-based; settings: Homo sapiens, Rh18;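 also: growth inhibition of human RH-18 cells, read out with a cell viability assay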
Description: SANGER: Inhibition of human RH-18 cell growth in a cell viability assay.

[16] = tested on: TT; experiment: cells; type: functional, cell-based; settings: Homo sapiens
Description: SANGER: Inhibition of human TT cell growth in a cell viability assay.

[17] = tested on: KARPAS-422; experiment: cells; type: functional, cell-based; settings: Homo sapiens
Description: SANGER: Inhibition of human KARPAS-422 cell growth in a cell viability assay.

[18] = tested on: HCC1599; experiment: cells; type: functional, cell-based; settings: Homo sapiens;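 also: growth inhibition of HCC1599 cells, read out in a cell viability assay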
Description: SANGER: Inhibition of human HCC1599 cell growth in a cell viability assay.

[19] = tested on: Caov-3 cell line; experiment: cells; type: functional, cell-based; settings: Homo sapiens;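 also: cell growth inhibition read out by a viability assay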
Description: SANGER: Inhibition of human Caov-3 cell growth in a cell viability assay.

[20] = tested on: SR; experiment: cells; type: functional, cell-based; settings: Homo sapiens
Description: SANGER: Inhibition of human SR cell growth in a cell viability assay.

[21] = tested on: NCI-H2029; experiment: cells; type: functional, cell-based; settings: Homo sapiens;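 also: Read-out is a viability assay on the cultured cells, and IC50 is the concentration that suppresses cell growth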
Description: SANGER: Inhibition of human NCI-H2029 cell growth in a cell viability assay.

[22] = tested on: TUR; experiment: cells; type: functional, cell-based; settings: Homo sapiens;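 also: growth inhibition of human TUR cells, read out with a cell viability assay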
Description: SANGER: Inhibition of human TUR cell growth in a cell viability assay.

[23] = tested on: ECC4; experiment: cells; type: functional, cell-based; settings: Homo sapiens;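 also: growth inhibition of ECC4 cells, read out with a cell viability assay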
Description: SANGER: Inhibition of human ECC4 cell growth in a cell viability assay.

[24] = tested on: BC1 cell line; experiment: SANGER: Inhibition of human BC-1 cell growth in a cell viability assay.; type: functional, cell-based
[25] = tested on: KNS-62; experiment: cells; type: functional, cell-based; settings: Homo sapiens;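 also: inhibition of cell growth, read out with a cell viability assay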
Description: SANGER: Inhibition of human KNS-62 cell growth in a cell viability assay.

[26] = tested on: LU-165; experiment: cells; type: functional, cell-based; settings: Homo sapiens
Description: SANGER: Inhibition of human LU-165 cell growth in a cell viability assay.

[27] = tested on: SK-CO-1; experiment: cells; type: functional, cell-based; settings: Homo sapiens;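 also: growth inhibition of SK-CO-1 cells, determined by a viability readout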
Description: SANGER: Inhibition of human SK-CO-1 cell growth in a cell viability assay.

[28] = tested on: EFE-184; experiment: cells; type: functional, cell-based; settings: Homo sapiens
Description: SANGER: Inhibition of human EFE-184 cell growth in a cell viability assay.

[29] = tested on: BT-549; experiment: cells; type: functional, cell-based; settings: Homo sapiens
Description: SANGER: Inhibition of human BT-549 cell growth in a cell viability assay.

[30] = tested on: MES-SA; experiment: cells; type: functional, cell-based, Homo sapiens;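 also: growth inhibition of human MES-SA cells, read out with a cell viability assay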
Description: SANGER: Inhibition of human MES-SA cell growth in a cell viability assay.

[31] = tested on: SNU-475; experiment: cells; type: functional, cell-based; settings: Homo sapiens
Description: SANGER: Inhibition of human SNU-475 cell growth in a cell viability assay.

[32] = tested on: ECC12; experiment: cells; type: functional, cell-based; settings: Homo sapiens
Description: SANGER: Inhibition of human ECC12 cell growth in a cell viability assay.

[33] = tested on: K052; experiment: cells; type: functional, cell-based; settings: Homo sapiens;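 also: Read-out from a cell viability assay, IC50 reflecting suppression of K052 cell growth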
Description: SANGER: Inhibition of human K052 cell growth in a cell viability assay.

[34] = tested on: L-540; experiment: cells; type: functional, cell-based; settings: Homo sapiens;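 also: growth inhibition of the human L-540 cell line, read out with a viability assay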
Description: SANGER: Inhibition of human L-540 cell growth in a cell viability assay.

[35] = tested on: WSU-NHL; experiment: cells; type: functional, cell-based; settings: Homo sapiens;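 also: growth inhibition of human WSU-NHL cells, read out with a cell viability assay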
Description: SANGER: Inhibition of human WSU-NHL cell growth in a cell viability assay.

[36] = tested on: DV-90; experiment: cells; type: functional, cell-based; settings: Homo sapiens;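 also: Read-out is a viability assay, with IC50 reflecting the drop in DV-90 cell growth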
Description: SANGER: Inhibition of human DV-90 cell growth in a cell viability assay.

[37] = tested on: MC-CAR; experiment: cells; type: functional, cell-based; settings: Homo sapiens;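 also: growth inhibition of the human MC-CAR cell line, read out by a cell viability assay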
Description: SANGER: Inhibition of human MC-CAR cell growth in a cell viability assay.

[38] = tested on: NCI-H748; experiment: cells; type: functional, cell-based; settings: Homo sapiens;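 also: growth inhibition of NCI-H748 cells, measured by a cell viability assay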
Description: SANGER: Inhibition of human NCI-H748 cell growth in a cell viability assay.

[39] = tested on: MFE-296; experiment: SANGER: Inhibition of human MFE-296 cell growth in a cell viability assay.; type: functional, cell-based
[40] = tested on: SNG-M; experiment: cells; type: functional, cell-based; settings: Homo sapiens
Description: SANGER: Inhibition of human SNG-M cell growth in a cell viability assay.

[41] = tested on: NCI-H1048; experiment: cells; type: functional, cell-based; settings: Homo sapiens;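 also: growth inhibition of human NCI-H1048 cells, read out with a cell viability assay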
Description: SANGER: Inhibition of human NCI-H1048 cell growth in a cell viability assay.

[42] = tested on: RT-4; experiment: SANGER: Inhibition of human RT4 cell growth in a cell viability assay.; type: functional, cell-based
[43] = tested on: RPMI 8402; experiment: SANGER: Inhibition of human RPMI-8402 cell growth in a cell viability assay.; type: functional, cell-based
[44] = tested on: P31-FUJ; experiment: cells; type: functional, cell-based; settings: Homo sapiens;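 also: growth inhibition of P31-FUJ cells, read out with a viability assay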
Description: SANGER: Inhibition of human P31-FUJ cell growth in a cell viability assay.

[45] = tested on: EW-7; experiment: SANGER: Inhibition of human EW-7 cell growth in a cell viability assay.; type: functional, cell-based
[46] = tested on: Calu-1; experiment: SANGER: Inhibition of human Calu-1 cell growth in a cell viability assay.; type: functional, cell-based
[47] = tested on: NCI-H1417; experiment: cells; type: functional, cell-based; settings: Homo sapiens;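 also: human NCI-H1417 cells, growth inhibition determined with a cell viability readout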
Description: SANGER: Inhibition of human NCI-H1417 cell growth in a cell viability assay.

[48] = tested on: SNU-423; experiment: cells; type: functional, cell-based, Homo sapiens
Description: SANGER: Inhibition of human SNU-423 cell growth in a cell viability assay.

[49] = tested on: Daudi; experiment: cells; type: functional, cell-based; settings: Homo sapiens;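 also: growth inhibition of Daudi cells, read out by a viability assay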
Description: SANGER: Inhibition of human Daudi cell growth in a cell viability assay.

[50] = tested on: HCC1143; experiment: cells; type: functional, cell-based; settings: Homo sapiens;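 also: growth inhibition of human HCC1143 cells, read out with a cell viability assay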
Description: SANGER: Inhibition of human HCC1143 cell growth in a cell viability assay.

[51] = tested on: LP-1; experiment: cells; type: functional, cell-based; settings: Homo sapiens;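 also: growth inhibition of human LP-1 cells, with the read-out taken from a cell viability assay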
Description: SANGER: Inhibition of human LP-1 cell growth in a cell viability assay.

[52] = tested on: MDA-MB-134-VI; experiment: cells; type: functional, cell-based; settings: Homo sapiens
Description: SANGER: Inhibition of human MDA-MB-134-VI cell growth in a cell viability assay.

[53] = tested on: NCI-H2196; experiment: cells; type: functional, cell-based; settings: Homo sapiens;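 also: cell viability assay used as the readout of growth inhibition in NCI-H2196 cells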
Description: SANGER: Inhibition of human NCI-H2196 cell growth in a cell viability assay.

[54] = tested on: NCI-H1734; experiment: cells; type: functional, cell-based; settings: Homo sapiens;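 also: growth inhibition of human NCI-H1734 cells, read out with a cell viability assay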
Description: SANGER: Inhibition of human NCI-H1734 cell growth in a cell viability assay.

[55] = tested on: D-566MG; experiment: cells; type: functional, cell-based; settings: Homo sapiens
[56] = tested on: NBsusSR; experiment: cells; type: functional, cell-based; settings: Homo sapiens;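 also: growth inhibition of the human cell line, read out with a cell viability assay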
Description: SANGER: Inhibition of human NBsusSR cell growth in a cell viability assay.

[57] = tested on: CHP-134; experiment: SANGER: Inhibition of human CHP-134 cell growth in a cell viability assay.; type: functional, cell-based
[58] = tested on: ZR-75-30; experiment: cells; type: functional, cell-based; settings: Homo sapiens;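 also: growth inhibition of ZR-75-30 cells, measured with a cell viability readout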
Description: SANGER: Inhibition of human ZR-75-30 cell growth in a cell viability assay.

Measured: IC50

Cc1cc([C@@H](C)Nc2ccccc2C(=O)O)c2nc(N3CCOCC3)cc(=O)n2c1 [AZD-6482]
1.54 µM: [5] | [17]
1.23 µM: [41]
1.07 µM: [49]
3.07 µM: [55]
1.57 µM and > 5.12 µM: [48]; snu-423
1.43 µM: [8]
> 5.12 µM and 1.11 µM: [30]; mes-sa
0.864 µM and 3.11 µM: [45]; ew-7
1.57 µM: [39]
> 5.12 µM: [1] | [2] | [3] | [4] | [6] | [7] | [9] | [10] | [11] | [12] | [13] | [14] | [15] | [16] | [18] | [19] | [20] | [21] | [22] | [23] | [24] | [25] | [26] | [27] | [28] | [29] | [31] | [32] | [33] | [34] | [35] | [36] | [37] | [38] | [40] | [42]; rt-4 | [43] | [44] | [46] | [47] | [50] | [51] | [52] | [53] | [54]

O=c1cc(-c2cccc3c2Sc2ccccc2S3)oc(N2CCOCC2)c1 [KU-55933]
> 10 µM: [15] | [21] | [25] | [56] | [29] | [41] | [57] | [48]; Homo sapiens, SNU-423 | [58] | [55]

CN(c1ncccc1CNc1nc(Nc2ccc3c(c2)CC(=O)N3)ncc1C(F)(F)F)S(C)(=O)=O [PF-00562271]
> 2.56 µM: [1] | [2] | [4] | [6] | [7] | [8] | [9] | [10] | [11] | [12] | [13] | [14] | [16] | [17] | [18] | [19] | [20] | [22] | [23] | [26] | [27] | [28] | [31] | [32] | [33] | [34] | [35] | [36] | [37] | [38] | [40] | [42]; Homo sapiens, RT-4 | [43] | [44] | [45]; Homo sapiens, EW-7 | [46] | [47] | [48]; Homo sapiens, SNU-423 | [49] | [50] | [51] | [52] | [53] | [54]
1.91 µM: [5]
2.48 µM: [39]
1.31 µM: [30]; Homo sapiens, MES-SA
0.487 µM: [3]
1.62 µM: [24]

CCC1=C[C@@H]2CN(C1)Cc1c([nH]c3ccccc13)[C@@](C(=O)OC)(c1cc3c(cc1OC)N(C)[C@H]1[C@@](O)(C(=O)OC)[C@H](OC(C)=O)[C@]4(CC)C=CCN5CC[C@]31[C@@H]54)C2 [VINORELBINE]
0.00137 µM: [3]
0.00689 µM: [13]
0.0085 µM: [27]
0.00584 µM: [20]
0.00714 µM: [5]
0.0241 µM: [47]
0.000509 µM: [32]
0.016 µM: [14]
0.00554 µM: [48]; Homo sapiens, SNU-423
0.00837 µM: [8]
0.0303 µM: [11]
0.0233 µM: [17]
0.00528 µM: [10]
0.0366 µM: [6]
0.0106 µM: [18]
0.0261 µM: [12]
0.00388 µM: [40]
0.0337 µM: [35]
0.0123 µM: [43]
0.0167 µM: [45]; Homo sapiens, EW-7
0.0212 µM: [33]
0.00599 µM: [39]
0.00447 µM: [2]
0.00927 µM: [37]
0.03 µM: [34]
0.0072 µM: [22]
0.00311 µM: [30]; Homo sapiens, MES-SA
0.0345 µM: [36]
0.0141 µM: [54]
0.00939 µM: [24]
0.057 µM: [38]
> 0.064 µM: [1] | [4] | [9] | [16] | [19] | [23] | [26] | [28] | [31] | [42]; Homo sapiens, RT-4 | [44] | [46] | [49] | [50] | [51] | [52] | [53]
0.039 µM: [7]
